Reference: PubChem BioAssay AID330 (DTP/NCI, 2004)
Several values for one entry are separate records, joined by “and”; a condition that tells them apart may be missing. Equal values may be shown once. Toxic doses and inconclusive results are not listed.

System: P388 leukemia ip, CD2F1 mice, survival T/C
Test: NCI In Vivo Anticancer Drug Screen. Data for tumor model P388 Leukemia (intraperitoneal) in CD2F1 (CDF1) mice
Settings: endpoint: median survival time, higher = longer survival
Summary of the method: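 Mice carrying the transplanted tumor received test compound or vehicle. Survival was recorded in each group, and the value is the treated-group measurement divided by that of the vehicle-treated control group.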

[1] = dose: 25.0 mg/kg/injection, schedule: Q01DX009 (ip), vehicle: saline
[2] = dose: 50.0 mg/kg/injection, schedule: Q01DX009 (ip), vehicle: saline
[3] = dose: 100.0 mg/kg/injection, schedule: Q01DX009 (ip), vehicle: saline
[4] = dose: 200.0 mg/kg/injection, schedule: Q01DX009 (ip), vehicle: saline
[5] = dose: 50.0 mg/kg/injection, schedule: Q01DX005 (ip), vehicle: Klucel (hydroxypropylcellulose) (HPC)
[6] = dose: 100.0 mg/kg/injection, schedule: Q01DX005 (ip), vehicle: Klucel (hydroxypropylcellulose) (HPC)
[7] = dose: 200.0 mg/kg/injection, schedule: Q01DX005 (ip), vehicle: Klucel (hydroxypropylcellulose) (HPC)
[8] = dose: 60.0 mg/kg/injection, schedule: Q01DX005 (ip), vehicle: saline with Tween-80
[9] = dose: 120.0 mg/kg/injection, schedule: Q01DX005 (ip), vehicle: saline with Tween-80
[10] = dose: 240.0 mg/kg/injection, schedule: Q01DX005 (ip), vehicle: saline with Tween-80
[11] = dose: 50.0 mg/kg/injection, schedule: Q01DX005 (ip), vehicle: saline with Tween-80
[12] = dose: 100.0 mg/kg/injection, schedule: Q01DX005 (ip), vehicle: saline with Tween-80
[13] = dose: 200.0 mg/kg/injection, schedule: Q01DX005 (ip), vehicle: saline with Tween-80
[14] = dose: 25.0 mg/kg/injection, schedule: Q01DX005 (ip), vehicle: Klucel (hydroxypropylcellulose) (HPC)
[15] = dose: 100.0 mg/kg/injection, schedule: Q04DX002 (ip), vehicle: saline

For `O=[N+]([O-])c1cccnc1S(=O)(=O)c1ccccn1`, the T/C (dose: 6.25 mg/kg/injection, schedule: Q01DX009 (ip), vehicle: Klucel (hydroxypropylcellulose) (HPC)) was 100 % of control and the T/C (dose: 12.5 mg/kg/injection, schedule: Q01DX009 (ip), vehicle: Klucel (hydroxypropylcellulose) (HPC)) was 100 % of control.
`COCC(=O)OC` was tested, and the T/C [1] was 97 % of control, the T/C [2] was 100 % of control and the T/C [3] was 98 % of control. For the same compound, the T/C [4] was 92 % of control.
In the case of `C[CH](C)[Sn](=[O])[CH](C)C`, the T/C (dose: 0.78 mg/kg/injection, schedule: Q01DX009 (ip), vehicle: saline) is reported as 113 % of control, the T/C (dose: 1.56 mg/kg/injection, schedule: Q01DX009 (ip), vehicle: saline) is reported as 106 % of control and the T/C (dose: 3.12 mg/kg/injection, schedule: Q01DX009 (ip), vehicle: saline) is reported as 107 % of control.
With `CC1=C(C(=O)Nc2ccccc2)C(c2ccc(C)cc2)C(C(=O)Nc2ccccc2)=C(C)N1` the T/C (dose: 100.0 mg/kg/injection, schedule: Q04DX002 (ip), vehicle: saline with Tween-80) was 107 % of control, the T/C (dose: 200.0 mg/kg/injection, schedule: Q04DX002 (ip), vehicle: saline with Tween-80) was 106 % of control and the T/C (dose: 400.0 mg/kg/injection, schedule: Q04DX002 (ip), vehicle: saline with Tween-80) was 101 % of control.
For `c1ccc(CC[n+]2ccccc2)cc1`, the T/C (dose: 12.5 mg/kg/injection, schedule: Q01DX009 (ip), vehicle: saline) was 88 % of control and the T/C [1] was 87 % of control.
For `S=C(N/N=C/c1ccncc1)Nc1ccccc1`, the T/C (dose: 60.0 mg/kg/injection, schedule: Q01DX005 (ip), vehicle: Klucel (hydroxypropylcellulose) (HPC)) was 99 % of control, the T/C (dose: 120.0 mg/kg/injection, schedule: Q01DX005 (ip), vehicle: Klucel (hydroxypropylcellulose) (HPC)) was 100 % of control and the T/C (dose: 240.0 mg/kg/injection, schedule: Q01DX005 (ip), vehicle: Klucel (hydroxypropylcellulose) (HPC)) was 91 % of control.
In the case of `O=C(CSC1CCc2ccccc21)N/N=C/c1ccccc1O` (stereo unspecified), the T/C [5] is reported as 96 % of control, the T/C [6] is reported as 98 % of control and the T/C [7] is reported as 89 % of control.
In the case of `Oc1ccc(Nc2c3ccccc3nc3c2ccc2ccccc23)cc1CN(CCCl)CCCl`, the T/C (dose: 7.2 mg/kg/injection, schedule: Q04DX003 (ip), vehicle: saline) is reported as 194 % of control, the T/C (dose: 11.0 mg/kg/injection, schedule: Q04DX003 (ip), vehicle: saline) is reported as 205 % of control and the T/C (dose: 16.0 mg/kg/injection, schedule: Q04DX003 (ip), vehicle: saline) is reported as 161 % of control.
In the case of `O=S(=O)(C(c1ccc(Cl)cc1)c1ccc(Cl)cc1)C(Cl)(Cl)Cl`, the T/C (dose: 25.0 mg/kg/injection, schedule: Q01DX001 (ip), vehicle: Klucel (hydroxypropylcellulose) (HPC)) is reported as 108 % of control, the T/C (dose: 50.0 mg/kg/injection, schedule: Q01DX001 (ip), vehicle: Klucel (hydroxypropylcellulose) (HPC)) is reported as 102 % of control and the T/C (dose: 100.0 mg/kg/injection, schedule: Q01DX001 (ip), vehicle: Klucel (hydroxypropylcellulose) (HPC)) is reported as 102 % of control.
In the case of `CCO/C=C\Br`, the T/C [8] is reported as 105 % of control, the T/C [9] is reported as 99 % of control and the T/C [10] is reported as 100 % of control.
In the case of `CCOC(=O)C1CCCCC12Nc1cccc3cccc(c13)N2` (stereo unspecified), the T/C [11] is reported as 95 % of control, the T/C [12] is reported as 105 % of control and the T/C [13] is reported as 113 % of control.
`O=C(CCl)NC(Cc1ccccc1F)C(=O)O` (stereo unspecified) was tested, and the T/C [2] was 106 % of control, the T/C [3] was 102 % of control and the T/C [4] was 101 % of control.
`N#CC(C(N)=O)C1(C(C#N)C(N)=O)C(=O)Nc2ccccc21` (stereo unspecified) was tested, and the T/C [14] was 103 % of control, the T/C [5] was 100 % of control and the T/C [6] was 98 % of control. For the same compound, the T/C [7] was 100 % of control.
In the case of `NC(N)=NS(=O)(=O)c1ccc(N=NC2=C(O)C(c3ccccc3)N(c3ccccc3)C2=O)cc1` (stereo unspecified), the T/C (dose: 100.0 mg/kg/injection, schedule: Q01DX001 (ip), vehicle: saline with Tween-80) is reported as 102 % of control, the T/C (dose: 200.0 mg/kg/injection, schedule: Q01DX001 (ip), vehicle: saline with Tween-80) is reported as 102 % of control and the T/C (dose: 400.0 mg/kg/injection, schedule: Q01DX001 (ip), vehicle: saline with Tween-80) is reported as 90 % of control.
For `COc1ccccc1N=Nc1cc(S(=O)(=O)O)c2ccccc2c1O`, the T/C [1] was 89 % of control, the T/C [2] was 97 % of control and the T/C [3] was 100 % of control and 117 % of control. The T/C [4] was 91 % of control.
For `CC(=O)OC(C)C(C)[N+](C)(C)C` (stereo unspecified), the T/C [15] was 94 % of control.
With `O=C(NC(Cc1ccc(O)cc1)C(=O)NC(Cc1c[nH]c2ccccc12)C(=O)O)OCc1ccccc1` (stereo unspecified) the T/C [11] was 106 % of control, the T/C [12] was 103 % of control and the T/C [13] was 106 % of control.
In the case of `c1ccc(-c2csc3nc(N4CCCCC4)cn23)cc1`, the T/C (dose: 100.0 mg/kg/injection, schedule: Q04DX003 (ip), vehicle: saline + Tween-80 + alcohol) is reported as 107 % of control and the T/C (dose: 200.0 mg/kg/injection, schedule: Q04DX003 (ip), vehicle: saline + Tween-80 + alcohol) is reported as 107 % of control.
With `C[C@@H]1CC[C@]2(C)CC[C@]3(C)C(=CC[C@@H]4[C@@]5(C)CC[C@@H](OC(=O)c6ccc(O)cc6)C(C)(C)[C@@H]5C[C@H](O)[C@]43C)[C@@H]2[C@H]1C(=O)O` the T/C (dose: 0.2 mg/kg/injection, schedule: Q01DX009 (ip), vehicle: saline with Tween-80) was 159 % of control, the T/C (dose: 12.5 micrograms/kg/injection, schedule: Q01DX009 (ip), vehicle: saline with Tween-80) was 117 % of control and the T/C (dose: 25.0 micrograms/kg/injection, schedule: Q01DX009 (ip), vehicle: saline with Tween-80) was 117 % of control. For the same compound, the T/C (dose: 50.0 micrograms/kg/injection, schedule: Q01DX009 (ip), vehicle: saline with Tween-80) was 118 % of control and the T/C (dose: 400.0 micrograms/kg/injection, schedule: Q01DX009 (ip), vehicle: saline with Tween-80) was 163 % of control.
In the case of `C(=C\c1ccccc1)/c1ccccc1`, the T/C (dose: 6.25 mg/kg/injection, schedule: Q01DX005 (ip), vehicle: saline) is reported as 100 % of control, the T/C (dose: 12.5 mg/kg/injection, schedule: Q01DX005 (ip), vehicle: saline) is reported as 109 % of control and the T/C (dose: 25.0 mg/kg/injection, schedule: Q01DX005 (ip), vehicle: saline) is reported as 94 % of control.
`C[S+](C)CCCl` was tested, and the T/C (dose: 50.0 mg/kg/injection, schedule: Q01DX005 (ip), vehicle: saline) was 100 % of control, the T/C (dose: 100.0 mg/kg/injection, schedule: Q01DX005 (ip), vehicle: saline) was 107 % of control and the T/C (dose: 200.0 mg/kg/injection, schedule: Q01DX005 (ip), vehicle: saline) was 109 % of control.
In the case of `COC(=O)C1=C/CCCN/C=C\1C(=O)OC`, the T/C (dose: 100.0 mg/kg/injection, schedule: Q04DX003 (ip), vehicle: Klucel (hydroxypropylcellulose) (HPC)) is reported as 97 % of control, the T/C (dose: 200.0 mg/kg/injection, schedule: Q04DX003 (ip), vehicle: Klucel (hydroxypropylcellulose) (HPC)) is reported as 97 % of control and the T/C (dose: 400.0 mg/kg/injection, schedule: Q04DX003 (ip), vehicle: Klucel (hydroxypropylcellulose) (HPC)) is reported as 98 % of control.
In the case of `CC(=O)OC1CCC2(C)OC(=O)CC2C1` (stereo unspecified), the T/C [11] is reported as 98 % of control, the T/C [12] is reported as 100 % of control and the T/C [13] is reported as 100 % of control.
`Nc1[nH]c(=O)ncc1-c1ccccc1Cl` was tested, and the T/C [8] was 98 % of control, the T/C [9] was 104 % of control and the T/C [10] was 112 % of control.
With `COC(=O)c1nc(N)nc(C(=O)OC)c1C(=O)c1ccc(Cl)cc1Cl` the T/C [8] was 95 % of control and the T/C [9] was 100 % of control.
For `CSc1ccc(N2C(N)=NC(N)=NC2(C)C)cc1`, the T/C (dose: 6.25 mg/kg/injection, schedule: Q01DX005 (ip), vehicle: saline with Tween-80) was 100 % of control, the T/C (dose: 12.5 mg/kg/injection, schedule: Q01DX005 (ip), vehicle: saline with Tween-80) was 102 % of control and the T/C (dose: 25.0 mg/kg/injection, schedule: Q01DX005 (ip), vehicle: saline with Tween-80) was 100 % of control.
`COc1cc([C@@H]2c3cc4c(cc3[C@H](OC(=O)c3ccncc3)[C@H]3COC(=O)[C@H]23)OCO4)cc(OC)c1OC` was tested, and the T/C (dose: 6.25 mg/kg/injection, schedule: Q01DX005 (ip), vehicle: Klucel (hydroxypropylcellulose) (HPC)) was 101 % of control, the T/C (dose: 12.5 mg/kg/injection, schedule: Q01DX005 (ip), vehicle: Klucel (hydroxypropylcellulose) (HPC)) was 104 % of control and the T/C [14] was 118 % of control.
`O=C1OC(=O)C2C1C1c3ccccc3C2(O)c2ccccc21` (stereo unspecified) was tested, and the T/C (dose: 30.0 mg/kg/injection, schedule: Q01DX005 (ip), vehicle: saline with Tween-80) was 106 % of control, the T/C [8] was 100 % of control and the T/C [9] was 94 % of control.
`NC1=NC(O)(c2ccccc2)C(O)(c2ccccc2)N1` (stereo unspecified) was tested, and the T/C (dose: 25.0 mg/kg/injection, schedule: Q04DX002 (ip), vehicle: saline) was 98 % of control, the T/C (dose: 50.0 mg/kg/injection, schedule: Q04DX002 (ip), vehicle: saline) was 97 % of control and the T/C [15] was 98 % of control.
